Molecular target: T1, 5-LO (Homo sapiens, UniProt P09917)
T1 construct: incubating a test compound with heparinised human blood, prior to challenge with the calcium ionophore A23187; endogenous in cells; host or cells: blood cells of heparinised human whole blood
T1 sequence (P09917 1-674): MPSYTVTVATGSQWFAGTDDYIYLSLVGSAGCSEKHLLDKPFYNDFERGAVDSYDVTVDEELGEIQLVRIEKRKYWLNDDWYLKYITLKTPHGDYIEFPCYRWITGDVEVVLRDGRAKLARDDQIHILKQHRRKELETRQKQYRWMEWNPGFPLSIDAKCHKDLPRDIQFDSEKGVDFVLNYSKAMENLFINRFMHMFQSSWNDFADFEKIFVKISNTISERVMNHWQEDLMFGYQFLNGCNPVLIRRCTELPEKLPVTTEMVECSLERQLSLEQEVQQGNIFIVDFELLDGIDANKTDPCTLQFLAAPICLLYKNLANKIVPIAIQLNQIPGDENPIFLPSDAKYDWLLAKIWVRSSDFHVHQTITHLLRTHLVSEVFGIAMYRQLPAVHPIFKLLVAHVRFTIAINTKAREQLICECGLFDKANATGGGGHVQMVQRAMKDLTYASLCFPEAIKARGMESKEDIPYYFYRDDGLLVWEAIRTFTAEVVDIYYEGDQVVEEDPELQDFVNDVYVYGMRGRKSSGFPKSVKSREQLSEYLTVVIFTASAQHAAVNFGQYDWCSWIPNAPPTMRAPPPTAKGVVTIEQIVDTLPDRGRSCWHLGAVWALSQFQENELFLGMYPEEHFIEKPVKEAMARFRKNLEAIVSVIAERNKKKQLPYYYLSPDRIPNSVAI
Experiment: Test a): in vitro heparinised human blood challenged with calcium ionophore A23187, radioimmunoassay of LTB4
Format: cell-based
Details: A23187 challenge, read-out: IC₅₀ against LTB₄
Text: As stated previously, the compounds of the formula I are inhibitors of the enzyme 5-LO. […] J. Pharmacol. 1985, 84, 34P) which involve the use of a protein-LTB₄ conjugate produced using the procedure of Young et alia (Prostaglandins, 1983, 26(4), 605-613). The effects of a test compound on the enzyme cyclooxygenase (which is involved in the alternative metabolic pathway for arachidonic acid and gives rise to prostaglandins, thromboxanes and related metabolites) may be measured at the same time using the specific radioimmunoassay for thromboxane B₂(TxB₂) described by Carey and Forder (see above). This test provides an indication of the effects of a test compound against 5-LO and also cyclooxygenase in the presence of blood cells and proteins. It permits the selectivity of the inhibitory effect on 5-LO or cyclooxygenase to be assessed. • b) An ex vivo assay system, which is a variation of test a) above, involving administration to a group of rats of a test compound (usually orally as the suspension produced when a solution of the test compound in dimethylsulphoxide is added to carboxymethylcellulose), blood collection, heparinisation, challenge with A23187 and radioimmunoassay of LTB₄ and TxB₂. […]

| IC50 | Structure (SMILES) |
| --- | --- |
| 0.04 µM | COC1(OC)CC[C@H](C)[C@H](c2cccc(OCc3ccc4c(ccc(=O)n4C)c3)c2)C1 (racemic) [Example 4, (3RS,4SR)-1,1-dimethoxy-4-methyl-3-[3-(1-methyl-2-oxo-1,2-dihydroquinolin-6-ylmethoxy)phenyl]cyclohexane] |
| 0.39 µM | COC1CCC(C)C(c2cccc(OCc3ccc4c(ccc(=O)n4C)c3)c2)C1 (centres unmarked) [Example 2, 1-methoxy-4-methyl-3-[3-(1-methyl-2-oxo-1,2-dihydroquinolin-6-ylmethoxy)phenyl]cyclohexane] |
